Results reported in patent publication US10633379B2, “Bromodomain inhibitors” (AbbVie Inc., priority 2016, dated 2020).

Tests used:
[1] = biological target: BRD4 (BDI_K57-E168) (Homo sapiens (Human), UniProt O60885); experiment: TR-FRET bromodomain binding assay, BRD4 BDI; conditions: mean Ki, calculated from IC50, probe Kd and probe concentration
Method in brief: (§1)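 His-tagged BRD4 BDI (12 nM, with 100 nM Alexa647 BET-inhibitor probe) or BDII (4 nM, 30 nM probe), plus 1 nM Eu-anti-His antibody, in pH 6.0 phosphate buffer with 2% DMSO. Equilibrated 1 h at room temperature and read by TR-FRET. IC50 from a 4-parameter fit was converted to Ki using probe Kd and probe concentration.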

[2] = biological target: BRD4 (BDII_E352-M457) (Homo sapiens (Human), UniProt O60885); experiment: TR-FRET bromodomain binding assay, BRD4 BDII; conditions: mean Ki, calculated from IC50, probe Kd and probe concentration
Method in brief: as §1

[3] = Xenograft tumor growth inhibition assay, SKM-1 (AML); format: in vivo, Female SCID Beige mice; conditions: female, SCID Beige, in vivo, mouse SKM-1 xenograft, oral, read-out: AUC, mouse efficacy, AML (SKM-1)
[4] = test system: SKM-1_FP1 xenograft tumors; experiment: as above; format: in vivo, Female SCID Beige mice; conditions: mouse SKM-1 xenograft, oral
[5] = Xenograft tumor growth inhibition assay, LNCaP (prostate); format: in vivo, Male NSG mice; conditions: male, NSG, in vivo, mouse LNCaP xenograft, oral, read-out: AUC, mouse efficacy, Prostate (LNCaP)
Method: (§2) The effect of compound of Example 32, 35 and Compound X to inhibit the growth of SKM-1_FP1 and LNCaP-FGC xenograft tumors was evaluated. Female SCID Beige mice (Charles River) were utilized for the SKM-1_FP1 flank xenograft model. Male NSG mice (JAX Labs) were used for the LNCaP-FGC study. Cells were suspended in PBS, mixed with Matrigel (phenol red free, Becton Dickinson Biosciences Discovery Labware) in a ratio of 1:4 (V/V) and inoculated subcutaneously into the flank (five million cells per site) of the mice. Inoculated mice were randomized into groups and treatment was initiated when mean tumor volume was 0.2-0.25 cm^3. The compounds were administered orally in (volume %): 1.5% DMSO, 30% PEG 400, and 68.5% Phosol 53 MCT. Tumor growth in the flank was assessed by measuring tumor size with calipers and calculating volume using the formula (L×W^2/2). Study groups were terminated prior to tumor volume reaching 3 cm^3. Inhibition of tumor growth was assessed at the time the vehicle-treated group was terminated by calculating the ratio of the mean volume of the test drug group to the mean volume of the untreated (control) group (T/C) and calculating percent tumor growth inhibition (% TGI).

[6] = test system: LNCaP-FGC xenograft tumors; experiment: as above; format: in vivo, Male NSG mice; conditions: mouse LNCaP xenograft, oral
Method: as §2

[7] = Fourteen day rat toxicology study, maximum tolerated exposure; conditions: for AUC at 14 day: po
Method: Compounds were dosed orally once daily, in Sprague-Dawley rats.

[8] = Sprague-Dawley, rat, in vivo, 14 day
[9] = Sprague-Dawley, rat, in vivo, 30 mg/kg

Structure (SMILES)	Ki [1] [nM]	Ki [2] [nM]	AUC ([3]; dose 1 mg/kg) [ng·h/mL]	% TGI, AML (SKM-1) ([4]; dose 1 mg/kg) [%]	AUC ([5]; dose 1 mg/kg) [ng·h/mL]	% TGI, Prostate (LNCaP) ([6]; dose 1 mg/kg) [%]	AUC at 14 day ([7]; Sprague-Dawley, rat, in vivo, 1 mg/kg) [ng·h/mL]	AUC ratio (rat maximum tolerated exposure/mouse efficacious exposure) Prostate (LNCaP) ([7]; exposure margin versus mouse LNCaP xenograft) [x]	AUC ratio (rat maximum tolerated exposure/mouse efficacious exposure) AML (SKM-1) ([7]; exposure margin versus mouse SKM-1 xenograft) [x]	AUC ([3]; dose 9.4 mg/kg) [ng·h/mL]	% TGI, AML (SKM-1) ([4]; dose 9.4 mg/kg) [%]	AUC ([5]; dose 30 mg/kg) [ng·h/mL]	% TGI, Prostate (LNCaP) ([6]; dose 30 mg/kg) [%]	AUC ratio (rat maximum tolerated exposure/mouse efficacious exposure) AML (SKM-1) [7, 8] [x]	AUC ratio (rat maximum tolerated exposure/mouse efficacious exposure) Prostate (LNCaP) [7, 8] [x]	AUC at 14 day [7, 9] [ng·h/mL]	AUC ([3]; dose 4.7 mg/kg) [ng·h/mL]	% TGI, AML (SKM-1) ([4]; dose 4.7 mg/kg) [%]	AUC ([5]; dose 4.7 mg/kg) [ng·h/mL]	% TGI, Prostate (LNCaP) ([6]; dose 4.7 mg/kg) [%]
CCS(=O)(=O)Nc1ccc(Oc2ccc(F)cc2F)c(-c2cn(C)c(=O)c3[nH]ccc23)c1 [Compound X, N-[4-(2,4-difluorophenoxy)-3-(6-methyl-7-oxo-6,7-dihydro-1H-pyrrolo[2,3-c]pyridin-4-yl)phenyl]ethanesulfonamide, reference compound]	2.09	0.952	1200	76	1200	64	725	0.6	0.6	–	–	–	–	–	–	–	–	–	–	–
Cc1cccc(C)c1Oc1ccc(C(C)(C)O)cc1-c1cn(C)c(=O)c2[nH]c(C(=O)NC(C)(C)C)cc12 [Example 32, N-tert-butyl-4-[2-(2,6-dimethylphenoxy)-5-(2-hydroxypropan-2-yl)phenyl]-6-methyl-7-oxo-6,7-dihydro-1H-pyrrolo[2,3-c]pyridine-2-carboxamide]	599	2.8	–	–	–	–	–	–	–	5000	76	12600	60	14	5.5	69200	–	–	–	–
CCNC(=O)c1cc2c(-c3cc(C(C)(C)O)ccc3Oc3c(C)cc(F)cc3C)cn(C)c(=O)c2[nH]1 [Example 35, N-ethyl-4-[2-(4-fluoro-2,6-dimethylphenoxy)-5-(2-hydroxypropan-2-yl)phenyl]-6-methyl-7-oxo-6,7-dihydro-1H-pyrrolo[2,3-c]pyridine-2-carboxamide]	–	–	–	–	–	–	–	–	–	–	–	–	–	–	–	27500	840	74	1100	64
